This note sets out measurements from PubChem BioAssay AID2060341 (Molecular Pharmacology Branch, DTP, NCI, 2025).

This assay has as its system 327498-153-R-J2-PDC multicell spheroid viability. Briefly: Anticancer human tumor 327498-153-R-J2-PDC patient-derived uterine carcinosarcoma cell line growth inhibition [IpAb]. The settings on record: for viability, T/C: stronger effect = lower value. The gist of the method: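 Combinations with ipatasertib or abemaciclib were tested on tumour spheroids holding HUVEC (25%) and MSC (15%) alongside 60% malignant cells. Top concentration was at or near clinical Cmax (10 microM if undefined), descending in half-log steps.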

Setting [1] is: curve of first compound, second compound 0.01 µM.
[2] abbreviates: curve of first compound, second compound 0.0316 µM.
[3] abbreviates: curve of first compound, second compound 0.1 µM.
[4] abbreviates: curve of first compound, second compound 0.316 µM.
The mark [5] stands for this setting: curve of first compound, second compound 1 µM.
Setting [6] is: second compound 0.01 µM, first compound 0.0316 µM.
Where [7] appears, read: second compound 0.01 µM, first compound 0.1 µM.
[8] abbreviates: second compound 0.0316 µM, first compound 0.0316 µM.
Setting [9] is: second compound 0.0316 µM, first compound 0.1 µM.
Where [10] appears, read: second compound 0.1 µM, first compound 0.0316 µM.
[11] abbreviates: second compound 0.1 µM, first compound 0.1 µM.
Where [12] appears, read: second compound 0.1 µM, first compound 0.316 µM.
The mark [13] stands for this setting: second compound 0.1 µM, first compound 1 µM.
Where [14] appears, read: second compound 0.1 µM, first compound 3.16 µM.
Where [15] appears, read: second compound 0.1 µM, first compound 10 µM.
Where [16] appears, read: second compound 0.316 µM, first compound 0.0316 µM.
Setting [17] is: second compound 0.316 µM, first compound 0.1 µM.
Setting [18] is: second compound 0.316 µM, first compound 0.316 µM.
Setting [19] is: second compound 0.316 µM, first compound 1 µM.
[20] abbreviates: second compound 0.316 µM, first compound 3.16 µM.
The mark [21] stands for this setting: second compound 0.316 µM, first compound 10 µM.
Setting [22] is: second compound 1 µM, first compound 0.0316 µM.
[23] abbreviates: second compound 1 µM, first compound 0.1 µM.
[24] abbreviates: second compound 1 µM, first compound 0.316 µM.
Where [25] appears, read: second compound 1 µM, first compound 1 µM.
Where [26] appears, read: second compound 1 µM, first compound 3.16 µM.
[27] abbreviates: second compound 1 µM, first compound 10 µM.

Values joined by “and” are separate entries in the source; they are usually repeats but may differ in a detail not shown here. Equal values may be shown once. Where only a bound is given, the exact number is not on record here.
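Note: spheroids exposed to agents for 7 days.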
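Throughout, for viability, T/C: 100% = DMSO vehicle control viability.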

In the case of `Cn1nccc1Nc1nccc(-c2ccn(C(CO)c3ccc(Cl)c(F)c3)c(=O)c2)n1` (centres undefined) + CCN1CCN(Cc2ccc(Nc3ncc(F)c(-c4cc(F)c5nc(C)n(C(C)C)c5c4)n3)nc2)CC1, the IC50 was 3680 nM under setting [1]; 1960 nM under setting [2]; 657 nM under setting [3]; less than 31.6 nM under setting [4]; less than 31.6 nM under setting [5]. Besides, the viability, T/C runs as follows: under setting [6], 78%; under setting [7], 70.3%; (second compound 0.01 µM, first compound 0.316 µM) 67%; (second compound 0.01 µM, first compound 1 µM) 74.3%; (second compound 0.01 µM, first compound 3.16 µM) 53.6%; (second compound 0.01 µM, first compound 10 µM) 26.7%. Besides, the viability, T/C is 69.1% under setting [8]; 55.4% under setting [9]; 52.8% (second compound 0.0316 µM, first compound 0.316 µM); 57.9% (second compound 0.0316 µM, first compound 1 µM); 48% (second compound 0.0316 µM, first compound 3.16 µM); 30.4% (second compound 0.0316 µM, first compound 10 µM). Besides, the viability, T/C under setting [10] was 55.6%; the viability, T/C under setting [11] is 50%; the viability, T/C under setting [12] was 48.5%; the viability, T/C under setting [13] is 49.2%; the viability, T/C under setting [14] is 44%; the viability, T/C under setting [15] was 26.4%. Further, the viability, T/C is, setting by setting: under setting [16], 53.5%; under setting [17], 42.6%; under setting [18], 42.4%; under setting [19], 44.4%; under setting [20], 41.5%; under setting [21], 28.1%. In addition, the viability, T/C reads like this: under setting [22], 46.1%; under setting [23], 45.3%; under setting [24], 40.3%; under setting [25], 43.6%; under setting [26], 45.3%; under setting [27], 30.4%.
On to `Cc1nc(NC(=O)N2CCCC2C(N)=O)sc1-c1ccnc(C(C)(C)C(F)(F)F)c1` (centres undefined) + CC(C)NCC(C(=O)N1CCN(c2ncnc3c2C(C)CC3O)CC1)c1ccc(Cl)cc1, for which the IC50 is 9910 nM under setting [3]; 4450 nM under setting [4]; 1230 nM under setting [5]; 49.9 nM (curve of first compound, second compound 3.16 µM); less than 31.6 nM (curve of first compound, second compound 10 µM). The viability, T/C runs as follows: under setting [10], 91.1%; under setting [11], 93.2%; under setting [12], 83.3%; under setting [13], 72.7%; under setting [14], 63.8%; under setting [15], 49.4%. In addition, the viability, T/C was 72% under setting [16]; 70.5% under setting [17]; 67.8% under setting [18]; 59.2% under setting [19]; 57.8% under setting [20]; 38.5% under setting [21]. Also, the viability, T/C reads like this: under setting [22], 56.4%; under setting [23], 57.7%; under setting [24], 59.2%; under setting [25], 49.8%; under setting [26], 42.5%; under setting [27], 30.5%. Besides, the viability, T/C is, setting by setting: (second compound 3.16 µM, first compound 0.0316 µM) 54.3%; (second compound 3.16 µM, first compound 0.1 µM) 44.9%; (second compound 3.16 µM, first compound 0.316 µM) 36.2%; (second compound 3.16 µM, first compound 1 µM) 34.6%; (second compound 3.16 µM, first compound 3.16 µM) 33.7%; (second compound 3.16 µM, first compound 10 µM) 21.3%. The viability, T/C was 38.7% (second compound 10 µM, first compound 0.0316 µM); 31.7% (second compound 10 µM, first compound 0.1 µM); 26.6% (second compound 10 µM, first compound 0.316 µM); 23.5% (second compound 10 µM, first compound 1 µM); 25.5% (second compound 10 µM, first compound 3.16 µM); 17.2% (second compound 10 µM, first compound 10 µM).
`CC(C)n1nc(-c2ccc3oc(N)nc3c2)c2c(N)ncnc21` + CCN1CCN(Cc2ccc(Nc3ncc(F)c(-c4cc(F)c5nc(C)n(C(C)C)c5c4)n3)nc2)CC1: the IC50 under setting [1] is 7.33 nM; the half-inhibitory concentration (IC50) under setting [2] came out at 4.58 nM; the IC50 under setting [3] was 2.01 nM; the IC50 under setting [4] worked out at 1.03 nM; the IC50 under setting [5] was determined as 1.17 nM. For the same compound, the viability, T/C is 90.9% (second compound 0.01 µM, first compound 0.000316 µM); 77.3% (second compound 0.01 µM, first compound 0.001 µM); 68.1% (second compound 0.01 µM, first compound 0.00316 µM); 45.6% (second compound 0.01 µM, first compound 0.01 µM); 21.2% under setting [6]; 16.1% under setting [7]. The viability, T/C was 68.7% (second compound 0.0316 µM, first compound 0.000316 µM); 73.6% (second compound 0.0316 µM, first compound 0.001 µM); 53.8% (second compound 0.0316 µM, first compound 0.00316 µM); 37.1% (second compound 0.0316 µM, first compound 0.01 µM); 19.8% under setting [8]; 14.8% under setting [9]. For the same compound, the viability, T/C was 58.2% (second compound 0.1 µM, first compound 0.000316 µM); 50.3% (second compound 0.1 µM, first compound 0.001 µM); 49.8% (second compound 0.1 µM, first compound 0.00316 µM); 31.4% (second compound 0.1 µM, first compound 0.01 µM); 20.7% under setting [10]; 14.6% under setting [11]. Further, the viability, T/C runs as follows: (second compound 0.316 µM, first compound 0.000316 µM) 59.2%; (second compound 0.316 µM, first compound 0.001 µM) 50.1%; (second compound 0.316 µM, first compound 0.00316 µM) 39.5%; (second compound 0.316 µM, first compound 0.01 µM) 28.5%; under setting [16], 20.3%; under setting [17], 15.2%. Further, the viability, T/C (second compound 1 µM, first compound 0.000316 µM) is 56.9%; the viability, T/C (second compound 1 µM, first compound 0.001 µM) is 50.8%; the viability, T/C (second compound 1 µM, first compound 0.00316 µM) was 46.3%; the viability, T/C (second compound 1 µM, first compound 0.01 µM) was 35.7%; the viability, T/C under setting [22] was 23.1%; the viability, T/C under setting [23] was 19.9%.
Take `Cn1cnc2c(F)c(Nc3ccc(Br)cc3Cl)c(C(=O)NOCCO)cc21`: the viability, T/C reads like this: (compound 0.00949 µM) 94% and 97.4%; (compound 0.03 µM) 86.6% and 73.7%; (compound 0.0949 µM) 85.2% and 77.9%; (compound 0.3 µM) 64.3% and 67.1%; (compound 0.949 µM) 69.9% and 51.7%; (compound 3 µM) 49.4% and 36.6%. Moreover, where the note is “curve of compound”, the IC50 was > 3000 nM and 1070 nM.
As to `Cn1ncnc1[C@H]1c2n[nH]c(=O)c3cc(F)cc(c23)N[C@@H]1c1ccc(F)cc1`, the viability, T/C is, setting by setting: (compound 0.000316 µM) 109% and 99%; (compound 0.001 µM) 106% and 99.6%; (compound 0.00316 µM) 99.2% and 92.1%; (compound 0.01 µM) 74.8% and 65.7%; (compound 0.0316 µM) 47.8% and 39%; (compound 0.1 µM) 26.5% and 21.4%. Moreover, the IC50 (curve of compound) is 28 nM and 19.6 nM.

Broadly, the IC50 is the concentration needed to halve the response being measured. The term viability, T/C denotes the result in the treated group divided by that in the control group, in per cent.
